The subject of experiment [1] is Leukemia 60 cell line. The experiment is described as follows: Median growth inhibitory concentration of compound tested in vitro against human leukemia 60 cells. It counts as functional.
Experiment [2] concerns Leukemia 60 cell line. Nature of the experiment: Median toxic concentration of compound tested in vitro against human leukemia 60 cells. The experiment is classed as functional. As to conditions: read-out: TC50 (the source's name).

This note sets out measurements from ChEMBL document CHEMBL1132856, “Antitumour activity of sphingoid base adducts of phenethyl isothiocyanate” (2000).

In the case of `CCCCCCCCCCCCCCCC(O)C(CO)/N=C(\S)NCCc1ccccc1` (stereo not given), in the experiment with Leukemia 60 cell line [1], the GC50 is 1.6 µM. Moreover, in the experiment on Leukemia 60 cell line [2], the CC50 was 2.37 µM.
The corresponding values for `CCCCCCCCCCCCC/C=C\C(O)C(CO)/N=C(\S)NCCc1ccccc1` (stereo not given) are 0.64 µM and 2.53 µM.
With `CCCCCCCCCCCCCCC[C@@H](O)[C@@H](N)CO` [DIHYDROSPINGOSINE], in the experiment with Leukemia 60 cell line [1], the GC50 turned out to be 0.49 µM. Also, in the experiment on Leukemia 60 cell line [2], the CC50 was found to be 2.55 µM.
The matching figures for `S=C=NCCc1ccccc1` [PHENETHYLISOTHIOCYANATE]: 0.84 µM and 1.37 µM.
As for `CCCCCCCCCCCCCC=C[C@@H](O)[C@@H](N)CO` [SPHINGOSINE], the GC50 in the experiment on Leukemia 60 cell line [1] was 1.24 µM. In the experiment with Leukemia 60 cell line [2], the CC50 was 2.42 µM.
